Assay results from PubChem BioAssay AID588540 (NMMLSC, 2011).
Activity calls are given as the source filed them.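 How the source made its calls: active means viability below 80%, treated as toxic; inactive means the rest.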

The compounds below were run on HEK-293 viability, CellTiter-Glo, 3 days (assay: HEK-293 cell cytotoxicity, late-stage follow-up, cytotoxicity control for GRK2 aptamer-displacement inhibitor project, powder set 1, set 2 (AID 588540)). Conditions: at 20 µM; hits give low values.

**Q.** Which viability does the source give for `O=C(CCS(=O)(=O)c1ccc(Br)s1)Nc1ccccc1Br` here?
**A.** 71.3%

**Q.** `Cc1cc2ccccc2n1CCNC(=O)C(C)Oc1ccccc1` (stereo not drawn) was tested. Which viability did it give?
**A.** 68.6%

**Q.** `Cc1ccc(CCNC(=O)CCS(=O)(=O)c2ccc(Br)cc2)cc1` was tested. Which viability did it give?
**A.** 126% (inactive)

**Q.** For `COC(=O)c1ccc(NC(=O)CCS(=O)(=O)c2ccc(Br)cc2)cc1`, which viability is on record?
**A.** 126% (inactive)

**Q.** `CC(=O)N1CCN(Cc2nc3cc(Cl)ccc3c(=O)[nH]2)CC1` was tested. Which viability did it give?
**A.** 124% (inactive)

**Q.** How did the viability turn out when `O=C(CN1CCc2ccccc21)NC(=O)NCc1ccccc1` was run?
**A.** 56.1%

**Q.** `COc1ccc(CCNC(=O)CCS(=O)(=O)c2ccc(Br)cc2)cc1OC` was tested. Which viability did it give?
**A.** 120% (inactive)

**Q.** For `C#CCSc1nc2sc3c(c2c(=O)n1C)CCC3`, which viability is on record?
**A.** 92.8% (inactive)

**Q.** Which viability does the source give for `CCN(CC)c1ccc(NC(=O)CCS(=O)(=O)c2ccc(Br)cc2)c(C)c1` here?
**A.** 97.3% (inactive)

**Q.** Which viability does the source give for `Cc1ccccc1NC(=O)CCS(=O)(=O)c1ccc(Br)s1` here?
**A.** 94.2% (inactive)

**Q.** `NS(=O)(=O)c1ccc(CCNC(=O)CCS(=O)(=O)c2ccc(Br)cc2)cc1` was tested. Which viability did it give?
**A.** 124% (inactive)

**Q.** For `O=C(O)Cc1ccc(-n2cccc2)cc1`, which viability is on record?
**A.** 125% (inactive)

**Q.** For `CCOc1ccccc1NC(=O)CCS(=O)(=O)c1ccc(Br)cc1`, which viability is on record?
**A.** 79.5% (inactive)

**Q.** For `Cc1cccc(CCNC(=O)CCS(=O)(=O)c2ccc(Br)cc2)c1`, which viability is on record?
**A.** 129% (inactive)

**Q.** How did the viability turn out when `CCOc1ccc(NC(=O)CCS(=O)(=O)c2ccc(Br)cc2)cc1` was run?
**A.** 108% (inactive)

**Q.** Which viability does the source give for `COc1ccc(Cl)cc1NC(=O)CCS(=O)(=O)c1ccc(Br)cc1` here?
**A.** 106% (inactive)

**Q.** Which viability does the source give for `O=C(CCS(=O)(=O)c1ccc(Br)cc1)Nc1ccc(Br)cc1F` here?
**A.** 116% (inactive)

**Q.** With `CC(CS(=O)(=O)c1ccc2c(c1)NC(=O)CS2)C(=O)NCc1ccccc1Cl` (stereo not drawn) as the compound, how does the viability read?
**A.** 119% (inactive)

**Q.** For `COc1ccc([N+](=O)[O-])cc1NC(=O)CCS(=O)(=O)c1ccc(Br)cc1`, which viability is on record?
**A.** 118% (inactive)

**Q.** How did the viability turn out when `COc1ccc(NC(=O)CCS(=O)(=O)c2ccc(Br)s2)cc1` was run?
**A.** 86.8% (inactive)

**Q.** Which viability does the source give for `O=C(CCS(=O)(=O)c1ccc(Br)cc1)NCc1cccs1` here?
**A.** 131% (inactive)

**Q.** How did the viability turn out when `COC(=O)c1ccccc1NC(=O)CCS(=O)(=O)c1ccc(Br)s1` was run?
**A.** 81.6% (inactive)

**Q.** With `O=C(CSc1nc2ccccc2c(=O)n1-c1ccccc1)NC(=O)CN1CCCC1=O` as the compound, how does the viability read?
**A.** 116% (inactive)
